Source: patent US20140051575A1 (priority 2011, published 2014)

Columns and labels:
Plasmopara viticola = assay: Plasmopara test (grapevines)/preventive; format: in vivo; conditions: preventive spray, 10 ppm of active ingredient, evaluated 6 days after inoculation, 0% = untreated control, 100% = no disease
Procedure: To produce a suitable preparation of active compound, 1 part by weight of active compound is mixed with the stated amounts of solvent and emulsifier, and the concentrate is diluted with water to the desired concentration.
To test for preventive activity, young plants are sprayed with the preparation of active compound at the stated rate of application. After the spray coating has dried on, the plants are inoculated with an aqueous spore suspension of Plasmopara viticola and then remain for 1 day in an incubation cabinet at approximately 20° C. and a relative atmospheric humidity of 100%. The plant is subsequently placed for 4 days in a greenhouse at approximately 21° C. and a relative atmospheric humidity of approximately 90%. The plants are then misted and placed for 1 day in an incubation cabinet.
The test is evaluated 6 days after the inoculation. 0% means an efficacy which corresponds to that of the untreated control, while an efficacy of 100% means that no disease is observed.

Phytophthora infestans = format: in vivo; conditions: tomato plants, preventive spray, 500 ppm of active ingredient, evaluated 7 days after inoculation; 0% = untreated control, 100% = no disease
[1] = Measurement of logP values by HPLC on reversed phase columns (EEC directive 79/831 Annex V.A8); format: physicochemical; conditions: pH 2.7, 0.1% formic acid in water / acetonitrile gradient, calibration with alkan-2-ones
Procedure: Measurement of logP values was performed according EEC directive 79/831 Annex V.A8 by HPLC (High Performance Liquid Chromatography) on reversed phase columns with the following methods:
Measurement of LC-MS was done at pH 2.7 with 0.1% formic acid in water and with acetonitrile (contains 0.1% formic acid) as eluent with a linear gradient from 10% acetonitrile to 95% acetonitrile.
Calibration was done with not branched alkan2-ones (with 3 to 16 carbon atoms) with known logP-values (measurement of logP values using retention times with linear interpolation between successive alkanones). lambda-maX-values were determined using UV-spectra from 200 nm to 400 nm and the peak values of the chromatographic signals.

| SMILES | Eff. % (Plasmopara viticola) [%] | Eff. % (Phytophthora infestans) [%] | Log P [1] |
| --- | --- | --- | --- |
| Cn1nnnc1C(=NOCc1csc(NC(=O)COCC2CCC2)n1)c1ccccc1 [Example 15] | 100 | 100 | 3.52 |
| Cn1nnnc1C(=NOCc1cccc(NC(=O)C2Cc3ccccc32)n1)c1ccccc1 (stereo not shown) [Example 91] | 77 | – | 3.58 |
| Cn1nnnc1C(=NOCc1csc(NC(=O)CSCc2cccs2)n1)c1ccccc1 [Example 69] | – | 95 | 3.46 |
| Cc1nnnn1C(=NOCc1cccc(NC(=O)C(C)(C)CSC2CCCCC2)n1)c1ccccc1 [Example 109] | – | 95 | 5.08 |
| Cc1nnnn1C(=NOCc1cccc(NC(=O)CCSCc2ccccc2)n1)c1ccccc1 [Example 112] | – | 88 | 3.89 |
| Cc1nnnn1C(=NOCc1csc(NC(=O)C(C)(C)CSC2CCCCC2)n1)c1ccccc1 [Example 113] | – | 98 | 4.85 |
| Cn1nnnc1C(=NOCc1cccc(NC(=O)COCCC2CCCC2)n1)c1ccccc1 [Example 11] | – | 95 | 4.61 |
| Cc1nnnn1C(=NOCc1csc(NC(=O)C(C)SCc2ccccc2)n1)c1ccccc1 (stereo not shown) [Example 82] | – | 100 | 3.85 |
| Cn1nnnc1C(=NOCc1cccc(NC(=O)CSCC2CC2)n1)c1ccccc1 [Example 67] | 78 | – | 3.51 |
| Cn1nnnc1C(=NOCc1csc(NC(=O)CCSCc2ccccc2)n1)c1ccccc1 [Example 108] | – | 90 | 3.69 |
| Cn1nnnc1C(=NOCc1csc(NC(=O)CCOCc2ccccc2)n1)c1ccccc1 [Example 106] | – | 93 | 3.33 |
| Cc1nnnn1C(=NOCc1csc(NC(=O)CSCc2cccs2)n1)c1ccccc1 [Example 84] | – | 98 | 3.51 |
| CC(OCC1CC1)C(=O)Nc1ccc(Br)c(CON=C(c2ccccc2)c2nnnn2C)n1 (stereo not shown) [Example 3] | – | 100 | 4.23 |
| Cc1nnnn1C(=NOCc1csc(NC(=O)COCCC2CCCCC2)n1)c1ccccc1 [Example 40] | – | 95 | 4.71 |
| Cc1nnnn1C(=NOCc1csc(NC(=O)COCCC2CCCC2)n1)c1ccccc1 [Example 41] | – | 98 | 4.34 |
| Cc1nnnn1C(=NOCc1csc(NC(=O)COCC2CCCC2)n1)c1ccccc1 [Example 36] | – | 97 | 3.94 |
| Cc1nnnn1C(=NOCc1csc(NC(=O)CCOCc2ccccc2)n1)c1ccccc1 [Example 114] | – | 93 | 3.37 |
| Cn1nnnc1C(=NOCc1cccc(NC(=O)CCOCc2ccccc2)n1)c1ccccc1 [Example 99] | – | 90 | 3.48 |
| Cc1ccccc1CSCC(=O)Nc1cccc(CON=C(c2ccccc2)n2nnnc2C)n1 [Example 78] | – | 100 | 4.06 |
| Cc1nnnn1C(=NOCc1cccc(NC(=O)CCSCc2ccc(F)cc2)n1)c1ccccc1 [Example 111] | – | 90 | 3.92 |

| SMILES | Eff. % (Plasmopara viticola) [%] | Eff. % (Phytophthora infestans) [%] | Log P [1] |
| --- | --- | --- | --- |
| Cc1nnnn1C(=NOCc1cccc(NC(=O)COCCC2CCCCC2)n1)c1ccccc1 [Example 30] | – | 95 | 5.08 |
| Cc1nnnn1C(=NOCc1csc(NC(=O)CSCc2ccccc2)n1)c1ccccc1 [Example 86] | – | 93 | 3.57 |
| CC(OCC1CCCC1)C(=O)Nc1cccc(CON=C(c2ccccc2)c2nnnn2C)n1 (stereo not shown) [Example 8] | – | 100 | 4.59 |
| CC(C)CCOC(C)C(=O)Nc1cccc(CON=C(c2ccccc2)c2nnnn2C)n1 (stereo not shown) [Example 44] | – | 100 | 4.41 |
| C=CCSC(C)C(=O)Nc1nc(CON=C(c2ccccc2)c2nnnn2C)cs1 (stereo not shown) [Example 75] | – | 93 | 3.31 |
| Cn1nnnc1C(=NOCc1csc(NC(=O)CCSCc2ccc(F)cc2)n1)c1ccccc1 [Example 107] | – | 95 | 3.73 |
| COC(C)CC(CC(=O)Nc1nc(CON=C(c2ccccc2)c2nnnn2C)cs1)OC (stereo not shown) [Example 103] | – | 95 | 2.78 |
| Cn1nnnc1C(=NOCc1csc(NC(=O)CSC2CCCC2)n1)c1ccccc1 [Example 77] | – | 95 | 3.65 |
| C=CCSC(C)C(=O)Nc1nc(CON=C(c2ccccc2)n2nnnc2C)cs1 (stereo not shown) [Example 85] | – | 98 | 3.35 |
| Cc1nnnn1C(=NOCc1csc(NC(=O)CCSCc2ccc(F)cc2)n1)c1ccccc1 [Example 115] | – | 80 | 3.78 |
| CC(OCC1CCCCC1)C(=O)Nc1cccc(CON=C(c2ccccc2)c2nnnn2C)n1 (stereo not shown) [Example 7] | – | 100 | 5.03 |
| Cc1nnnn1C(=NOCc1cccc(NC(=O)CCOCc2ccccc2)n1)c1ccccc1 [Example 110] | – | 85 | 3.55 |
| Cc1nnnn1C(=NOCc1csc(NC(=O)CSCCC(C)C)n1)c1ccccc1 [Example 81] | – | 95 | 3.99 |
| Cc1nnnn1C(=NOCc1cccc(NC(=O)C(C)OCC2CCCCC2)n1)c1ccccc1 (stereo not shown) [Example 28] | – | 100 | 5.13 |
| Cc1nnnn1C(=NOCc1cccc(NC(=O)C(C)OCC2CCCC2)n1)c1ccccc1 (stereo not shown) [Example 29] | – | 100 | 4.69 |
| Cc1nnnn1C(=NOCc1csc(NC(=O)C(C)OCC2CCCC2)n1)c1ccccc1 (stereo not shown) [Example 39] | – | 100 | 4.31 |
| Cn1nnnc1C(=NOCc1cccc(NC(=O)CCSCc2ccccc2)n1)c1ccccc1 [Example 101] | – | 90 | 3.83 |
| Cc1nnnn1C(=NOCc1csc(NC(=O)C(C)OCC2CCCCC2)n1)c1ccccc1 (stereo not shown) [Example 38] | – | 100 | 4.74 |
| Cc1nnnn1C(=NOCc1csc(NC(=O)COCC2CCCCC2)n1)c1ccccc1 [Example 37] | – | 100 | 4.36 |
| CC(COCc1ccccc1)C(=O)Nc1nc(CON=C(c2ccccc2)c2nnnn2C)cs1 (stereo not shown) [Example 104] | – | 100 | 3.65 |

| SMILES | Eff. % (Plasmopara viticola) [%] | Eff. % (Phytophthora infestans) [%] | Log P [1] |
| --- | --- | --- | --- |
| Cc1nnnn1C(=NOCc1csc(NC(=O)CSCC2CC2)n1)c1ccccc1 [Example 87] | – | 100 | 3.31 |
| CC(OCc1ccccc1)C(=O)Nc1nc(CON=C(c2ccccc2)c2nnnn2C)cs1 (stereo not shown) [Example 49] | 92 | – | 3.71 |
| Cn1nnnc1C(=NOCc1cccc(NC(=O)CCSCc2ccc(F)cc2)n1)c1ccccc1 [Example 100] | – | 95 | 3.87 |
| Cc1ccccc1CSCC(=O)Nc1cccc(CON=C(c2ccccc2)c2nnnn2C)n1 [Example 65] | 84 | – | – |
| Cc1nnnn1C(=NOCc1cccc(NC(=O)CSC2CCCC2)n1)c1ccccc1 [Example 80] | – | 100 | 3.92 |
| Cn1nnnc1C(=NOCc1csc(NC(=O)COCC2CC2)n1)c1ccccc1 [Example 13] | 79 | – | 3.04 |
| Cn1nnnc1C(=NOCc1cccc(NC(=O)COCC2CCCCC2)n1)c1ccccc1 [Example 6] | – | 95 | 4.63 |
| Cc1nnnn1C(=NOCc1cccc(NC(=O)CSC2CCCCC2)n1)c1ccccc1 [Example 79] | – | 100 | 4.26 |
| Cn1nnnc1C(=NOCc1csc(NC(=O)COCCC2CCCC2)n1)c1ccccc1 [Example 21] | – | 95 | 4.29 |
| CC(OCC(=O)Nc1nc(CON=C(c2ccccc2)c2nnnn2C)cs1)c1ccccc1 (stereo not shown) [Example 105] | – | 95 | 3.7 |
| Cn1nnnc1C(=NOCc1csc(NC(=O)C(C)(C)CSC2CCCCC2)n1)c1ccccc1 [Example 102] | – | 100 | 4.77 |
| Cc1nnnn1C(=NOCc1csc(NC(=O)C(C)OCC2CCCCO2)n1)c1ccccc1 (stereo not shown) [Example 62] | – | 98 | 3.69 |
| Cc1nnnn1C(=NOCc1cccc(NC(=O)COCC2CC2)n1)c1ccccc1 [Example 23] | – | 95 | 3.33 |
| Cc1nnnn1C(=NOCc1csc(NC(=O)COCC2CC2)n1)c1ccccc1 [Example 33] | 94 | – | 3.11 |
| Cc1nnnn1C(=NOCc1cccc(NC(=O)COCC2CCCC2)n1)c1ccccc1 [Example 26] | – | 97 | 4.34 |
| Cn1nnnc1C(=NOCc1cccc(NC(=O)COCCC2CCCCC2)n1)c1ccccc1 [Example 10] | – | 95 | 4.98 |
| Cc1nnnn1C(=NOCc1cccc(NC(=O)COCCC2CCCC2)n1)c1ccccc1 [Example 31] | – | 97 | 4.73 |
| C=CCSCC(=O)Nc1nc(CON=C(c2ccccc2)c2nnnn2C)cs1 [Example 72] | – | 100 | 3.11 |
| Cn1nnnc1C(=NOCc1csc(NC(=O)CSC2CCCCC2)n1)c1ccccc1 [Example 76] | – | 100 | 3.92 |
